For one assay, the target named is T1, Leukotriene B4 receptor 1 (Homo sapiens, UniProt Q15722). Nature of the assay: Compound was evaluated for relative binding affinity against LTB4 receptor in human neutrophil membranes using [3H]- LTB4 as radioligand relative to leukotriene B4. The format is cell membranes.
T1 sequence (Q15722 whole entry): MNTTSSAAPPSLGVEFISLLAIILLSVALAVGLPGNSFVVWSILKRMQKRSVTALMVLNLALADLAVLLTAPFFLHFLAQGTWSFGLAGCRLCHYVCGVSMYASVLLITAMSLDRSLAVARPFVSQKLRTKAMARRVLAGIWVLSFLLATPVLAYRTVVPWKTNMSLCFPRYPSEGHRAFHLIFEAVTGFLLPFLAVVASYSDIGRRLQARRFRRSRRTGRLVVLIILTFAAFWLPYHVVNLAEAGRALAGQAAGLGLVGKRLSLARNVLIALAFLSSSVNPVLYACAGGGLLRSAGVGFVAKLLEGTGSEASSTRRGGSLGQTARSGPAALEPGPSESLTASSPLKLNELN
With `CCCCCC(O)/C=C/[C@H]1CCC[C@@](O)(CC(=O)O)C1` (stereo not given in full), the relative binding affinity (RBA) stood at 0.001. In turn, `CCCCCCCCC(O)/C=C/[C@H]1CCC[C@@](O)(CC(=O)O)C1` (stereo not given in full) had a relative binding affinity (RBA) of 0.008. On the same count and under the same terms, as for `O=C(O)C[C@]1(O)CCC[C@H](/C=C/C(O)CCCCc2ccccc2)C1` (stereo in doubt; 1d1) [listing 1 of 2 here], the figure is 0.025; as for `O=C(O)C[C@]1(O)CCC[C@H](/C=C/C(O)CCCCc2ccccc2)C1` (stereo in doubt; 1d) [listing 1 of 2 here], 0.01.

The target of another assay is T1, Leukotriene B4 receptor 1. Nature of the assay: Compound was evaluated for inhibitory activity against LTB4 receptor in human neutrophil membranes using [3H]- LTB4 as radioligand. The assay is classed as cell membranes.
As usually defined, the IC50 is the concentration that inhibits the measured activity by half. Lower therefore signals greater potency in that assay. Consider `CCCCCC(O)/C=C/[C@H]1CCC[C@@](O)(CCCC(=O)O)C1` (stereo not given in full), for which the IC50 was determined as 70 µM. The same measure, in the same setting: as for `CCCCCC(O)/C=C/[C@H]1CCC[C@@](O)(CC(=O)O)C1` (stereo not given in full), the figure is 8 µM; as for `CCCCCCCCC(O)/C=C/[C@H]1CCC[C@@](O)(CC(=O)O)C1` (stereo not given in full), 1 µM. On the same count and under the same terms, with `O=C(O)C[C@]1(O)CCC[C@H](/C=C/C(O)CCCCc2ccccc2)C1` (stereo in doubt; 1d1) [listing 2 of 2 here] the figure was 0.3 µM; with `O=C(O)C[C@]1(O)CCC[C@H](/C=C/C(O)CCCCc2ccccc2)C1` (stereo in doubt; 1d2), 70 µM.

Consider `O=C(O)C[C@]1(O)CCC[C@H](/C=C/C(O)CCCCc2ccccc2)C1` (stereo in doubt; 1d) [listing 2 of 2 here], for which the IC50 turned out to be 0.8 µM.

For the origin of these results see ChEMBL document CHEMBL1129702, “Synthesis and pharmacological profile of new 1,3-disubstituted cyclohexanes as leukotriene B4 receptor antagonists” (Bioorg Med Chem Lett, 1996).
